Data: patent publication US8785638B2, “Thieno [2, 3-B] pyridine derivatives as viral replication inhibitors” (Katholieke Universiteit Leuven, priority 2009, dated 2014)
Where two headings read alike, the source gives them in different places.

How the values were obtained:
[1] = Cytotoxicity in mock-infected MT-4 cells (MTT); format: cell-based; settings: human, 50% cytotoxic concentration
Procedure: (§1) A rapid and automated assay procedure was used for the in vitro evaluation of anti-HIV agents. An HTLV-1 transformed T4-cell line MT-4, which was previously shown to be highly susceptible to and permissive for HIV infection, served as the target cell line. Inhibition of the HIV-induced cytopathogenic effect was used as the end point. The viabitlity of both HIV- and mock-infected cells was assessed spectrophotometrically via in situ reduction of 3-(4,5-dimethylthiazol-2-yl)-2,5-diphenyltetrazolium bromide (MTT). The 50% cytotoxic concentration (CC50 in μM or μg/ml) was defined as the concentration of compound that reduced the absorbance of the mock-infected control sample by 50%. The percent protection achieved by the compound in HIV-infected cells was calculated by the following formula:
(§2) [formula] whereby (ODT)HIV is the optical density measured with a given concentration of the test compound in HIV-infected cells; (ODC)HIV is the optical density measured for the control untreated HIV-infected cells; (ODC)MOCK is the optical density measured for the control untreated mock-infected cells; all optical density values were determined at 540 nm. The dose achieving 50% protection according to the above formula was defined as the 50% inhibitory concentration (EC50 in μM or μg/ml). The ratio of CC50 to EC50 was defined as the selectivity index (SI). […] Examples of inhibition of cell proliferation by particular compounds of the invention can be found by looking at the respective CC50 values in the MT-4 cell line. Cells:
(§3) MT-4 cells (Miyoshi et al., 1982) were grown and maintained in RPMI 1640 medium supplemented with 10% heat-inactivated fetal calf serum, 2 mM I-glutamine, 0.1% sodium bicarbonate, and 20 μg of gentamicin per ml. Alternatively, the MT-4 cells may also be grown in RPMI 1640 medium supplemented with 10% FCS and 20 μg/ml of gentamicin (RPMI-complete).

[2] = test system: HIV-1 (IIIB), HIV-1 (NL4.3); experiment: microbe, parasite or virus in culture; format: cell-based; settings: for EC50: Human immunodeficiency virus 1, IIIB, MT4, MT-4 cells, 50% protection against HIV-induced cytopathogenic effect, MTT; for SI: selectivity index, ratio of CC50 to EC50
Procedure: as §1, §2, §3
The HIV-1 (IIIB) strain (Popovic et al., 1984) as well as the HIV-1 (NL4.3) strain (Adachi et al., J. Virol. 59, 284-291 (1986)) were used.

[3] = target: LEDGF/p75-HIV-1 integrase interaction (Human immunodeficiency virus type 1 group M subtype B (isolate HXB2) (HIV-1), UniProt P04585); experiment: AlphaScreen assay of LEDGF-integrase interaction inhibition; format: binding
Procedure: Alphascreen Assay to Measure the LEDGF-Integrase Interaction Inhibitory Activity of Compounds of the Invention
The AlphaScreen assay was performed according to the manufacturer's protocol (Perkin Elmer, Benelux). Reactions were performed in 25 μl final volume in 384-well Optiwell™ microtiter plates (Perkin Elmer). The reaction buffer contained 25 mM Tris-HCl (pH 7.4), 150 mM NaCl, 1 mM MgCl2, 0.01% (v/v) Tween-20 and 0.1% (w/v) bovine serum albumin. His6-tagged integrase (300 nM final concentration) was incubated with the compounds for 30 min at 4° C. The compounds were added at varying concentrations spanning a wide range from 0.1 up to 100 μM. Afterwards 100 nM flag-LEDGF/p75 was added and incubation was prolonged for an additional hour at 4° C. Subsequently 5 μl of Ni-chelate-coated acceptor beads and 5 μl anti-flag donor beads were added to a final concentration of 20 μg/ml of both beads. Proteins and beads were incubated for 1 h at 30° C. in order to allow association to occur. Exposure of the reaction to direct light was omitted as much as possible and the emission of light from the acceptor beads was measured in the EnVision plate reader (Perkin Elmer, Benelux) and analyzed using the EnVision manager software. IN/DNA binding was analyzed in a similar setting using His6-tagged integrase (1 μM final concentration) and an oligodeoxynucleotide mimicking the IN ELISA oligonucleotide substrate (30 nM final concentration). Counterscreens with JPO2 or PogZ, respectively, were essentially performed as described previously.
His6-tagged HIV-1 integrase, 3xflag-tagged LEDGF/p75, MBP-JPO2 and MBP-PogZ were purified for AlphaScreen applications as described previously 23,25,56.

[4] = His6-tagged integrase 300 nM, flag-LEDGF/p75 100 nM, read-out: Alphascreen IC50

Compound | CC50 [1] [µM] | EC50 [2] [µM] | SI [2] | IC50 [3, 4] [µM] | IC50 [3] [µM]
CCCC(C(=O)O)c1c(C)nc2sc3c(c2c1-c1ccc(C)cc1)CCC3C (centres unmarked) [Cpd 128, 2-[2-methyl-7-methyl-4-p-tolyl-6,7-dihydro-5H-cyclopenta[4,5]thieno[2,3-b]pyridin-3-yl]pentanoic acid] | 121 | 4.07 | 30 | 11.3 | 
CCCC(C(=O)O)c1c(C)nc2sc3c(c2c1-c1ccco1)CCC3 (centres unmarked) [Cpd 129, 2-[2-Methyl-4-(2-furyl)-6,7-dihydro-5H-cyclopenta[4,5]thieno[2,3-b]pyridin-3-yl]pentanoic acid] | 130 | > 130 |  | 48 | 
CCCC(C(=O)O)c1c(C)nc2sc3c(c2c1-c1cccs1)CCC3 (centres unmarked) [Cpd 130, 2-[2-Methyl-4-(2-thienyl)-6,7-dihydro-5H-cyclopenta[4,5]thieno[2,3-b]pyridin-3-yl]pentanoic acid] | 130 | 29.6 | 4 | 30.6 | 
CCCC(C(=O)O)c1c(C)nc2sc3c(c2c1-c1ccc(OC)cc1)CCC3 (centres unmarked) [Cpd 131, 2-[2-Methyl-4-(p-anisyl)-6,7-dihydro-5H-cyclopenta[4,5]thieno[2,3-b]pyridin-3-yl]pentanoic acid] | 127 | 2.43 | 52 |  | 4.54
CCCC(C(=O)O)c1c(C)nc2sc3c(c2c1-c1ccc(C)cc1)CCOC3 (centres unmarked) [Cpd 133, 2-[2-Methyl-4-(p-tolyl)-5,8-dihydro-6H-7-oxa-9-thia-1-aza-fluoren-3-yl]pentanoic acid] | 165 | 18 | 8 | 7.8 | 
Cc1ccc(-c2c(C(Cc3ccccc3)C(=O)O)c(C)nc3sc4c(c23)CCC4)cc1 (centres unmarked) [Cpd 134, 2-[2-Methyl-4-(4-methylphenyl)-6,7-dihydro-5H-cyclopenta[4,5]thieno[2,3-b]pyridin-3-yl]-3-phenylpropanoic acid] | 114 | > 114 |  | 84.1 | 
CCCC(C(=O)O)c1c(C)nc2sc3c(c2c1-c1ccc(C)cc1)CCCCC3 (centres unmarked) [Cpd 135] | 109 | 42.4 | 3 |  | 55.8
Cc1ccc(-c2c(C(CC(C)C)C(=O)O)c(C)nc3sc4c(c23)CCCC4)cc1 (centres unmarked) [Cpd 136, 2-[2-Methyl-4-(p-tolyl)-5,6,7,8-tetrahydro[1]benzothieno[2,3-b]pyridin-3-yl]-4-methylpentanoic acid] | 86.4 | 1.02 | 85 | 4.34 | 
CCCC(C(=O)O)c1c(C)nc2sc3c(c2c1-c1ccccc1Cl)CCCC3 (centres unmarked) [Cpd 137, 2-[2-Methyl-4-(2-chlorophenyl)-5,6,7,8-tetrahydro[1]benzothieno[2,3-b]pyridin-3-yl]pentanoic acid] | 111 | > 111 |  | 51.9 | 
CCCC(C(=O)O)c1c(C)nc2sc3c(c2c1-c1cccc(Cl)c1)CCCC3 (centres unmarked) [Cpd 138, 2-[2-Methyl-4-(3-chlorophenyl)-5,6,7,8-tetrahydro[1]benzothieno[2,3-b]pyridin-3-yl]pentanoic acid] | 100 | 43.3 | 2 | 39.9 | 
CCCC(C(=O)O)c1c(C)nc2sc3c(c2c1-c1ccc(Cl)c(Cl)c1)CCCC3 (centres unmarked) [Cpd 139, 2-[2-Methyl-4-(3,4-dichlorophenyl)-5,6,7,8-tetrahydro[1]benzothieno[2,3-b]pyridin-3-yl]pentanoic acid] | 55.1 | 5.32 | 10 | 9.24 | 
CCCC(C(=O)O)c1c(C)nc2sc3c(c2c1-c1cccc(C(F)(F)F)c1)CCCC3 (centres unmarked) [Cpd 140, 2-[2-Methyl-4-(3-trifluoromethylphenyl)-5,6,7,8-tetrahydro[1]benzothieno[2,3-b]pyridin-3-yl]pentanoic acid] | 100 | 28.2 | 4 | 18.1 | 
CCCC(C(=O)O)c1c(C)nc2sc3c(c2c1-c1cccc(C)c1)CCCC3 (centres unmarked) [Cpd 141, 2-[2-Methyl-4-(m-tolyl)-5,6,7,8-tetrahydro[1]benzothieno[2,3-b]pyridin-3-yl]pentanoic acid] | 55.5 | 14.8 | 4 | 23.7 | 
CCCC(C(=O)O)c1c(C)nc2scc(-c3ccccc3)c2c1-c1ccc(C)cc1 (centres unmarked) [Cpd 143] | 66 | > 66 |  | 49.2 | 
CCCC(C(=O)O)c1c(C)nc2sc3c(c2c1-c1cccc(OC)c1)CCCC3 (centres unmarked) [Cpd 144, 2-[2-Methyl-4-(m-anisyl)-5,6,7,8-tetrahydro[1]benzothieno[2,3-b]pyridin-3-yl]pentanoic acid] | 63 | 20 | 3 |  | 6.64
CCCC(C(=O)O)c1c(C)nc2sc3c(c2c1-c1ccc(OC)c(OC)c1)CCCC3 (centres unmarked) [Cpd 145, 2-[2-Methyl-4-(3,4-dimethoxyphenyl)-5,6,7,8-tetrahydro[1]benzothieno[2,3-b]pyridin-3-yl]pentanoic acid] | > 125 | 123 | >1 | 29.6 | 
CCCC(C(=O)O)c1c(C)nc2sc3c(c2c1-c1ccc2c(c1)OCO2)CCCC3 (centres unmarked) [Cpd 146, 2-[2-Methyl-4-(benzo[d][1,3]dioxol-5-yl)-5,6,7,8-tetrahydro[1]benzothieno[2,3-b]pyridin-3-yl]pentanoic acid] | 124 | 2.98 | 42 | 4.76 | 
Cc1ccc(-c2c(C(CCCC(F)(F)F)C(=O)O)c(C)nc3sc4c(c23)CCCC4)cc1 (centres unmarked) [Cpd 147, 2-[2-Methyl-4-(p-tolyl)-5,6,7,8-tetrahydro[1]benzothieno[2,3-b]pyridin-3-yl]-6,6,6-trifluorohexanoic acid] | 41.5 | 8.79 | 5 | 23.7 | 
CCCC(C(=O)O)c1c(C)nc2sc3c(c2c1-c1ccc(Cl)cc1)CCCC3 (centres unmarked) [Cpd 148, 2-[2-Methyl-4-(4-chlorophenyl)-5,6,7,8-tetrahydro[1]benzothieno[2,3-b]pyridin-3-yl]pentanoic acid] | 70 | 0.53 | 132 | 2.19 | 
CCCC(C(=O)O)c1c(C)nc2sc3c(c2c1-c1ccc(CC)cc1)CCCC3 (centres unmarked) [Cpd 149, 2-[2-Methyl-4-(4-ethylphenyl)-5,6,7,8-tetrahydro[1]benzothieno[2,3-b]pyridin-3-yl]pentanoic acid] | 67 | > 67 |  | 74.4 | 
CCCC(C(=O)O)c1c(C)nc2sc3c(c2c1-c1cccnc1)CCCC3 (centres unmarked) [Cpd 150, 2-[2-Methyl-4-(pyridin-3-yl)-5,6,7,8-tetrahydro[1]benzothieno[2,3-b]pyridin-3-yl]pentanoic acid] | 38.5 | 0.78 | 49 | 1.37 | 
CCCC(C(=O)O)c1c(C)nc2sc3c(c2c1-c1ccc(OC(F)(F)F)cc1)CCCC3 (centres unmarked) [Cpd 151, 2-[2-Methyl-4-(4-trifluoromethoxyphenyl)-5,6,7,8-tetrahydro[1]benzothieno[2,3-b]pyridin-3-yl]pentanoic acid] | 48 | 8 | 6 | 21.5 | 
